{"source": "patent US8697662B2", "about": "“Methods for treating Kaposi sarcoma” (PTC Therapeutics, Inc., priority 2009, dated 2014)", "key": {"[1]": {"test_system": "Chinese hamster ovary (CHO) cells", "assay": "Chromosome aberration study in CHO cells", "type": "cell-based", "conditions": "with and without exogenous metabolic activation", "description": "(§1) Genotoxicity was assessed in a battery of in vitro and in vivo studies that included a bacterial reverse mutation study, a chromosome aberration study in Chinese hamster ovary (CHO) cells, and a micronucleus study in rats by the oral route. The in vitro studies were performed in the presence and absence of an exogenous metabolic activation system."}, "[2]": {"test_system": "soluble VEGF121 and VEGF165 isoforms", "assay": "ELISA of soluble VEGF production in multiple human tumor cell lines (EC50)", "type": "cell-based", "conditions": "18 human tumor cell lines", "description": "Study Design. […] In these experiments, cultures were established under normoxic conditions (21% oxygen). […] Cells requiring induction of VEGF production were incubated under hypoxic conditions (1% oxygen). At the completion of treatment, the conditioned media were collected and assayed by ELISA (as described in Section 9.1.1.1) for soluble VEGF121 and VEGF165 isoforms; results were calculated as percentage inhibition relative to vehicle treated controls. EC50 values were calculated from the dose concentration response curves."}, "[3]": {"test_system": "HT1080 xenografts", "assay": "Intratumoral microvessel density (CD31 immunostain) and tumor VEGF in HT1080 xenografts", "type": "in vivo, athymic nude mice", "conditions": "5 mg/kg BID oral (given as racemic mixture), 10 days", "description": "(§2) Experimental Design. HT1080 cells (5×10^6 cells/mouse) were implanted subcutaneously in male athymic nude mice.\nAt the end of treatment, the mice were sacrificed. Excised tumors were assayed by ELISA for VEGF content as described in Section 9.1.1.1, and were sectioned and immunostained with an anti murine CD31 antibody that is specific for endothelial cells."}, "[4]": {"assay": "Oral pharmacokinetics in mice", "type": "in vivo", "description": "(§3) The pharmacokinetic evaluations in mice were adjuncts to the primary pharmacodynamic xenograft studies. The evaluations in rats included toxicokinetic assessments in single-dose, 7-day, and 28-day toxicology studies as well as a mass-balance study after a single oral dose of ^14C-Compound #10. The evaluations in dogs included toxicokinetic assessments in 7-day and 28-day toxicology studies. In the studies performed, rodents were dosed once daily with Compound #10 formulated in vehicle and administered via oral gavage."}, "[5]": {"assay": "28-day oral toxicity study in dogs with 15-day recovery", "experimental": "(§4) The L23 vehicle was used. […] All studies in the toxicology program were conducted according to GLP regulations."}, "[6]": {"test_system": "bacterial reverse mutation", "assay": "Bacterial reverse mutation study", "conditions": "with and without exogenous metabolic activation", "description": "as §1"}, "[7]": {"assay": "Single-dose oral toxicity study in rats", "conditions": "Sprague Dawley, rat, in vivo, 1 day", "description": "A battery of genotoxicity studies was also performed. […] The L23 vehicle was used.\nBecause maximal exposure occurred at 100 mg/kg, this dose is considered the NOAEL for 1 day of dosing."}, "[8]": {"assay": "Oral toxicokinetics in dogs", "type": "in vivo, beagle dogs", "description": "as §3"}, "[9]": {"assay": "in vivo", "conditions": "both, beagle, dog, po", "experimental": "as §4"}, "[10]": {"test_system": "HeLa cells", "assay": "[…]-GLO luminescent cell viability assay in HeLa cultures", "type": "cell-based, human", "conditions": "any concentration tested", "description": "Experimental Design. HeLa (human cervical carcinoma) cell cultures were established under normoxic conditions (21% oxygen). HeLa cells increase VEGF production 4- to 5-fold in response to hypoxia. […] At the completion of treatment, the conditioned media were collected and the VEGF protein levels were assayed in an enzyme-linked immunosorbent assay (ELISA) with primary antibodies that recognize the soluble VEGF121 and VEGF165 isoforms (R & D Systems, Minneapolis, Minn., USA). To ensure that decreases in VEGF concentration were not due to cytotoxicity, cultures were assayed using a standard assay ([…]-GLO® Luminescent Cell Viability Assay; Promega, Madison, Wis., USA) that measures total cellular adenosine triphosphate (ATP) concentrations as an indicator of cell viability."}, "[11]": {"assay": "Functional observation battery, 7 days oral gavage", "type": "in vivo, Sprague Dawley rats", "conditions": "40, 120, and 400 mg/kg daily oral gavage"}, "[12]": {"assay": "7-day oral toxicity study in dogs", "type": "in vivo"}, "[13]": {"test_system": "HT1080 xenografts", "assay": "Time course of tumor size and plasma human VEGF in HT1080 xenografts", "type": "in vivo, athymic nude mice", "description": "as §2\nTumor size was measured by calipers immediately pre-treatment and at the time of sacrifice on Day 1, 2, or 3 (5 mice per group per day). At sacrifice, the plasma was collected for assay of pathologic human VEGF concentration using an ELISA that recognizes human VEGF121 and VEGF165 (as described in Section 9.1.1.1)."}, "[14]": {"molecular_target": "T1, CYPC19 (Homo sapiens, UniProt P33261)", "T1 construct": "host or cells: human hepatic microsomes or human recombinant isoenzymes", "T1 sequence (P33261 whole entry)": "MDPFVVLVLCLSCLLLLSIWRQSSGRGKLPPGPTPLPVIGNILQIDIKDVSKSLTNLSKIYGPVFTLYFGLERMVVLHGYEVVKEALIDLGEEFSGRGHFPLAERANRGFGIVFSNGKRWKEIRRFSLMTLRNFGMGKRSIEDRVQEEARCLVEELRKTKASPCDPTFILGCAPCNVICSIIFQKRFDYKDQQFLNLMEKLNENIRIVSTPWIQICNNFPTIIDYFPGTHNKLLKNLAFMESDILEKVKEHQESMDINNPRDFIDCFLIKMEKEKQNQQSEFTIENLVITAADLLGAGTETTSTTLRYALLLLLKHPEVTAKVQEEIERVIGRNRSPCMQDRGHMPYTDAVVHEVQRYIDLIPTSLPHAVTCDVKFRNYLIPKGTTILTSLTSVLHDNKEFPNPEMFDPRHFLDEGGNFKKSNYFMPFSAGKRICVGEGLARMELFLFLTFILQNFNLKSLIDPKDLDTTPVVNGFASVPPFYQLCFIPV", "assay": "CYP inhibition in human hepatic microsomes or recombinant isoenzymes: CYPC19", "type": "in vitro ADME", "excerpt": "It is possible that in certain clinical trial subjects, such agents may need to be adjusted for dosing or replaced by alternative agents that are not metabolized by CYP2D6, particularly when such agents may have a low therapeutic index."}}, "data": [{"smiles": "COc1ccc(C2c3[nH]c4ccc(Cl)cc4c3CCN2C(=O)Oc2ccc(Cl)cc2)cc1", "note": "(racemic) [Compound #10]", "values": [{"measurement": "genotoxic effects", "setting": "[1]", "value": "no evidence of genotoxic effects"}, {"measurement": "EC50 values for cell lines showing VEGF inhibition (in words)", "setting": "[2]", "value": "low nanomolar range"}, {"measurement": "tumor vessel count (CD31 immunostain)", "setting": "[3]", "value": "unchanged"}, {"measurement": "oral bioavailability (in words)", "setting": "[4]", "value": "orally bioavailable"}, {"measurement": "relationship between dose and plasma exposure (in words)", "setting": "[4]; oral", "value": "bell-shaped curve"}, {"measurement": "dose at which maximal exposures occurred", "setting": "[5]; dogs, 5, 15, and 30 mg/kg/dose BID, 28 days", "value": 30, "unit": "mg/kg/dose BID"}, {"measurement": "clinical tolerability", "setting": "[5]; dogs, low- and mid-dose levels (5, 15 mg/kg/dose BID), 28 days", "value": "clinically well tolerated"}, {"measurement": "NOAEL for 28-days", "setting": "[5]; dogs, oral capsules", "value": 15, "unit": "mg/kg/dose BID"}, {"measurement": "genotoxic effects", "setting": "[6]", "value": "no evidence of genotoxic effects"}, {"measurement": "dose at which maximal exposure occurred", "setting": "[7]", "value": 100, "unit": "mg/kg"}, {"measurement": "oral bioavailability (in words)", "setting": "[8]", "value": "orally bioavailable"}, {"measurement": "relationship between dose and plasma exposure (in words)", "setting": "[8]; oral", "value": "bell-shaped curve"}, {"measurement": "NOAEL at 28 days", "setting": "[9]", "value": 30, "unit": "mg/kg/day"}, {"measurement": "cytotoxicity (cell viability, ATP)", "setting": "[10]", "value": "No cytotoxicity was observed"}, {"measurement": "behavioral or neurological effects (functional observation battery)", "setting": "[11]", "value": "no adverse behavioral or neurological effects"}, {"measurement": "NOAEL at 7 days", "setting": "[12]; both sexes, beagle, dog, in vivo, dogs, oral capsules", "value": 60, "unit": "mg/kg/day"}, {"measurement": "dose at which exposures were maximal", "setting": "[12]; dogs, 10, 30, or 60 mg/kg/dose BID, 7 days", "value": 30, "unit": "mg/kg/dose BID"}, {"measurement": "treatment-related clinical finding", "setting": "[12]; dogs, males and females, 10, 30, or 60 mg/kg/dose BID, 7 days", "value": "increased incidence and frequency of soft stools"}, {"measurement": "NOAEL for 7-days", "setting": "[12]; dogs, oral capsules", "value": 30, "unit": "mg/kg/dose BID"}, {"measurement": "pathologic plasma human VEGF concentrations (in words)", "setting": "[13]; Days 2 and 3, 10 mg/kg oral QD", "value": "continued to decline"}, {"measurement": "pathologic plasma human VEGF levels (in words)", "setting": "[13]; by Day 1", "value": "numerically lower than in control animals"}, {"measurement": "reducing tumor derived plasma VEGF levels, comparison (in words)", "setting": "[13]; by Day 3 of treatment", "value": "as active as bevacizumab and more effective than doxorubicin"}, {"measurement": "inhibition of CYPC19 (in words)", "setting": "[14]", "value": "No meaningful inhibition"}]}]}
